This is an account of results in publication PMC9981206 (Cancer Research Communications, 2022).

The test system of data set [1] is OVCAR-4 cells. Briefly: MTS colorimetric cell growth assay, OVCAR-4. In kind it is cell-based, human. An excerpt: The cell cultures were kept below 20 passages (∼10 weeks) and routinely monitored (upon thawing and monthly) for Mycoplasma infections with MycoAlert Mycoplasma Detection Kit (Lonza). All cell lines were authenticated by short tandem repeat profiling to confirm their identity (Eurofins). TNKS1/2 and PARP1 biochemical assays ([27, 32]), luciferase-based WNT/β-catenin signaling pathway reporter assay ([22, 27, 32]), anti-proliferative assays, and NCI-60 tumor cell line panel screen ([7]), immunoblot analyses ([7, 32, 39]), RNA isolation, and real-time qRT-PCR ([7, 27, 39, 40]) were performed as previously described.
Prostate (Pro) and central nervous system (CNS). […] Mean ± SD values for data from one representative experiment of more than three repeated assays, each with six replicates, are shown. C, Evaluation of WNT/β-catenin signaling. Left, immunoblots of cytoplasmic AXIN1 and nuclear active form of β-catenin [non-phospho (Ser33/37/Thr41)] and total β-catenin. Lamin B1 loading controls are duplicated for OVCAR-4 immunoblots. Right, real-time RT-qPCR analysis of the WNT/β-catenin signaling target gene AXIN2. […] Immunoblots show representative data from two or more independent experiments. Actin (cytoplasm) and lamin B1 (nucleus) were used as loading controls. […]

Data set [2] relates to B16-F10 tumors. Kind of data set: B16-F10 mouse melanoma model. On the procedure: The experiment using B16-F10 tumors was carried out as previously described ([39]) at Reaction Biology. […] Next, the mice were sacrificed, approximately 8 hours after last dosing. Protein and RNA extracts were prepared from 8 tumors within each treatment group.
Data set [3] can be described thus: 28-day oral repeated dose toxicity study. In kind it is in vivo, mice. As to the method: Body weight and food consumption were measured thrice weekly. For the experiment using 10 mg/kg oral–twice daily dosing, blood was collected at the end of the experiment and hematologic and clinical biochemistry analyses were performed at IDEXX according to their standard protocols. Duodenum, jejunum, ileum, colon–rectum, lymph nodes, pancreas, heart, kidney, liver, spleen, lung, prostate, and testis were collected, formalin-fixed (10%), paraffin-embedded, stained with hematoxylin and eosin (H&E), and imaged as previously described ([39]). Staining of ileums using immunofluorescence was performed as previously described ([29, 39]). […] DAPI nuclear dye [(340 nm), 1 μg/μL, D9542, Sigma Aldrich] was added to the final washing solution. […] Imaging was performed using confocal microscopy as described previously ([39]). All animal experiments were approved by local animal experiment authorities (ethics committee of the Chinese Association for Laboratory Animal Sciences, German Centre for the Protection of Laboratory Animals, and Norwegian Food Safety Authority), and were carried out in compliance with FELASA guidelines and recommendations.

Where [4] appears, read: 10 mg/kg oral twice daily, immunoblot.
The mark [5] stands for this setting: 10 mg/kg oral twice daily, 28 days, CD-1 mice.
Where [6] appears, read: 10 mg/kg oral twice daily, 28 days, CD-1 mice, clinical biochemistry.
[7] abbreviates: 10 mg/kg oral twice daily, 28 days, CD-1 mice, hematology.

On to `CCOc1ccc(-c2nnc([C@H]3C[C@H](NC(=O)c4cccc5nccnc45)C3)n2-c2ccccc2F)nc1` [OM-153], for which the concentration for 50% growth inhibition (GI50) in data set [1] (Homo sapiens, OVCAR-4, 120 h) was > 10 nM. The compound further came in with a GI25 in data set [1] (OVCAR-4, 5 days) of 2.5 nM. Further, in data set [2] (setting [4]), the “AXIN1 protein in tumors” value is listed as “significant stabilization” and the β-catenin in tumors result is “insignificant downregulation”. In addition, the “transcription of the target gene Axin2 in tumors” value in data set [2] (10 mg/kg oral twice daily, real-time qRT-PCR) was “significantly decreased”. Besides, the “tumor end volume inhibition compared with the vehicle control” value in data set [2] (0.1–10 mg/kg OM-153 oral twice daily in combination with anti–PD-1 (10 mg/kg i.p. day 6, 9, 12)) is 51%–65%. The body weights result in data set [2] (any of the treatment groups, day 6 through 20) is listed as “No alterations in body weights”. The “antitumor effect, monotherapy controls” value in data set [2] (monotherapy, 10 mg/kg) is listed as “did not exert any significant antitumor effects”. Further, in data set [3] (setting [5]), the “clinical signs, body weight, food consumption” value is on record as “no clinical signs, body weight loss, or reduced food consumption were observed”; the “histopathology of other organs” value was “No atypical histopathologic changes”; the overall intestinal architecture entry is recorded as “intact”. The “expression of the ISC marker and WNT/β-catenin signaling target gene Lgr5 in ileum” value in data set [3] (10 mg/kg oral twice daily, 28 days, CD-1 mice, RNAscope) is given as “reduced”. In data set [3] (setting [6]), the “AST, ALT and GLDH levels” value is “insignificant alteration”; the “magnesium, potassium, and triglycerides” value is “significant decreases”. In data set [3] (setting [7]), the erythrocytes and hemoglobin entry is given as “moderate but significant reduction”; the leukocytes and reticulocytes result was “tendency toward reduced”. Also, the “histopathology of the other organs” value in data set [3] (100 mg/kg oral twice daily, C57BL/6J mice) is recorded as “No abnormal histopathologic changes”. Also, in data set [3] (100 mg/kg oral twice daily, C57BL/6J mice, 2 out of three mice), the small intestine histopathology entry is “loss of villi height, width, crypt, and as well as surface epithelium, accompanied by inflammation”. Further, in data set [3] (100 mg/kg oral twice daily, C57BL/6J mice, euthanized on day 7), the “clinical observation and body weight” value is “reduced activity and body weight loss in 3 of 4 mice”. Further, the kidney histopathology result in data set [3] (100 mg/kg oral twice daily, C57BL/6J mice, same mice as intestinal damage) is given as “signs of acute tubular damage in the kidney”.
